Peptide text beside a SMILES is read from it.

The test system of data set [1] is A7 cells.
Data set [2] in a line: Cell penetrating capacity of the pentapeptide. In kind it is cell-based. The settings on record: cells incubated with the peptide >1 hr (n.s.).
For data set [3] the following is noted: reported earlier; cited from earlier work.

With `CC[C@H](C)[C@H](NC(=O)[C@H](CC(C)C)NC(=O)[C@H](Cc1ccccc1)NC(=O)[C@H](CO)NC(=O)[C@@H](NC(=O)[C@H](CC(C)C)NC(=O)[C@H](CC(C)C)NC(=O)[C@@H](NC(=O)[C@@H](NC(=O)[C@@H]1CCCN1C(=O)[C@@H]1CCCN1C(=O)[C@H](CCCCN)NC(=O)[C@@H]1CCCN1C(=O)[C@H](CCCNC(=N)N)NC(=O)[C@H](CCCCN)NC(=O)[C@@H](N)CCCCN)C(C)C)[C@@H](C)CC)[C@@H](C)CC)C(=O)N[C@@H](Cc1ccccc1)C(=O)N[C@@H](CC(C)C)C(=O)N[C@H](C(=O)N[C@H](C(=O)NCC(=O)O)C(C)C)[C@@H](C)CC` [KKRPK-PrP-GPI-PSS] (H-KKRPKPPVILLISFLIFLIVG-OH), the toxicity entry in data set [1] is listed as “not toxic”.

In the case of “KKRPK (listed as Homo sapiens) [cell penetrating pentapeptide, transport moiety]”, in data set [2], the “entry into cells without Ca2+” value is “can enter the cells”. For the same compound, the cell penetrating capacity entry in data set [3] was “has cell penetrating capacity”.
